Results on 7 molecules are retold here after BindingDB's records for PubMed 12232544 (Emory University, 2002).

Experiment [1] deals with Histamine H1 receptor (Cavia porcellus, UniProt P31389).
Experiment [2] addresses T1, 5-hydroxytryptamine receptor 2C (Sus scrofa, UniProt K7GSR7).
T1 sequence (K7GSR7 whole entry): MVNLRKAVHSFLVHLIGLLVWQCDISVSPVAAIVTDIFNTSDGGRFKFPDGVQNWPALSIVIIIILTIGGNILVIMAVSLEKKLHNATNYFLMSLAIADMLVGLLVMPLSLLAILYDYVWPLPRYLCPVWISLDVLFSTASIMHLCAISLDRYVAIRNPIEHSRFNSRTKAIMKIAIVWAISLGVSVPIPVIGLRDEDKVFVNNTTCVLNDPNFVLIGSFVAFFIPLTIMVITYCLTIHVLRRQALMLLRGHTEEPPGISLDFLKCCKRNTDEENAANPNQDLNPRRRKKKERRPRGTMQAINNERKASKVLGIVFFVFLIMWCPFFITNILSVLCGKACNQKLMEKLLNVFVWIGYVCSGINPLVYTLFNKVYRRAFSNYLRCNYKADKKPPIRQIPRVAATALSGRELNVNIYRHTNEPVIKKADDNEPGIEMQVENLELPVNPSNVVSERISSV

Experiment [3] concerns the target T2, Alpha-1A adrenergic receptor (Homo sapiens, UniProt P35348).
T2 sequence (P35348 whole entry): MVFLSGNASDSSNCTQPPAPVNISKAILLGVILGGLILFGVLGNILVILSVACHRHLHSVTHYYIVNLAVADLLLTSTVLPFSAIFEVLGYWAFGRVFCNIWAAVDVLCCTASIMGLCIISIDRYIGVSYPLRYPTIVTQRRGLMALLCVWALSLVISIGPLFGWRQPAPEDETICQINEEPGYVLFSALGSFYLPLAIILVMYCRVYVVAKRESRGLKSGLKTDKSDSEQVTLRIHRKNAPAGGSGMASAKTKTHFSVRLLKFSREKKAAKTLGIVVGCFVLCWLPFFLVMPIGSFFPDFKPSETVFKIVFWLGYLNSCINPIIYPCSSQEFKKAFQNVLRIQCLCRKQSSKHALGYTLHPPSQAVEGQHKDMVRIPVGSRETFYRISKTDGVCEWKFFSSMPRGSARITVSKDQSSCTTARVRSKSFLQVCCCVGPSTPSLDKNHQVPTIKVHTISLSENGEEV

Several values for one entry are separate records, joined by “and”; a condition that tells them apart may be missing. Equal entries are not always repeated. Structures can show the parent of a compound that is named as a salt.

Sequence of Histamine H1 receptor (P31389 whole entry): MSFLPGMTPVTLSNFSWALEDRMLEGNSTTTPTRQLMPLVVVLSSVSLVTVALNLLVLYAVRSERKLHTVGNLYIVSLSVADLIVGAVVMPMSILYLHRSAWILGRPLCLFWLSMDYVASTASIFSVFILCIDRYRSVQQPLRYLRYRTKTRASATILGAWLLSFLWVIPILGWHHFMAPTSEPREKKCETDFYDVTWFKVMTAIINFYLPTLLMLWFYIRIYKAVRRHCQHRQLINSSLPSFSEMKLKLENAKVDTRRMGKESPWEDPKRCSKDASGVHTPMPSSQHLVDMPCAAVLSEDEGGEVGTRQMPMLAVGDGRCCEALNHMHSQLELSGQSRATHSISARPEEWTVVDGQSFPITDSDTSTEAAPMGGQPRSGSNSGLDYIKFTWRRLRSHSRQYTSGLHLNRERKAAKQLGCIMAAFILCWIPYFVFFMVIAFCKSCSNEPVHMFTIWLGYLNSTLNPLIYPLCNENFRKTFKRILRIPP

Consider `COCCCC/C(=N\OCCN)c1ccc(C(F)(F)F)cc1` [(1E)-5-methoxy-1-[4-(trifluoromethyl)phenyl]pentan-1-one O-(2-aminoethyl)oxime], for which the Ki in experiment [1] was more than 10000 nM; in experiment [2] it was 5790 nM.
On to `CN(C)CCCC1(c2ccc(F)cc2)OCc2cc(C#N)ccc21` (stereo not drawn) [CITALOPRAM HYDROBROMIDE], for which the Ki was 283 nM and 1970 nM in experiment [1]; 2050 nM and 2530 nM in experiment [2].
In experiment [1], `CNCC[C@@H](Oc1ccc(C(F)(F)F)cc1)c1ccccc1` [Fluoxetine-R-(-)] registered a Ki of 812 nM.
For `Fc1ccc([C@@H]2CCNC[C@H]2COc2ccc3c(c2)OCO3)cc1` [PAROXETINE], the values for the Ki in experiment [1] and in experiment [2] were more than 10000 nM and 9030 nM, respectively.
For the molecule `CNCC[C@@H](Oc1ccc(C(F)(F)F)cc1)c1ccccc1` [Prozac], in experiment [1], affinity was put at a Ki of 1550 nM.
Regarding `CN(C)CCC[C@]1(c2ccc(F)cc2)OCc2cc(C#N)ccc21` [R-citalopram], the figures for the Ki in experiment [1] and in experiment [2] were 181 nM and 1800 nM, respectively.
Consider `CN[C@@H]1CC[C@@H](c2ccc(Cl)c(Cl)c2)c2ccccc21` [[4-(3,4-Dichloro-phenyl)-1,2,3,4-tetrahydro-naphthalen-1-yl]-methyl-amine], for which the Ki in experiment [1] amounted to 6580 nM; in experiment [3], 188 nM; in experiment [2], 2300 nM.
